Experiments:
[1] = system: patients with advanced non-hematologic malignancies; test: Dose-limiting toxicities in cycle 1 and determination of MTD; assay type: in vivo
Description: The dose-escalation cohort comprised patients with any non-hematologic malignancy. The four MTD expansion cohorts were limited to patients with non-small cell lung cancer (NSCLC), head and neck cancer (squamous cell cancer), soft tissue sarcoma, and prostate cancer, respectively. In addition, the TPEC was open to patients with non-hematologic malignancy that could be safely biopsied. Dose escalation initially proceeded from a starting dose of 0.125 mg/m^2 of body surface area, with one patient per dose level and dose doubling up to a dose of 1.0 mg/m^2. Dose doubling was permitted until one of the following occurred: one patient experienced a dose-limiting toxicity (DLT) during cycle 1; any two patients experienced a drug-related adverse event (AE) of grade ≥2 during cycle 1; or the dose level of 1 mg/m^2 had been evaluated. Dose escalation then proceeded in 33 % increments following a standard 3 + 3 schema based on the occurrence of DLTs in cycle 1. […]
The safety population included all patients who received ≥1 dose of ixazomib, and the DLT-evaluable population, which was used for determination of the MTD, comprised patients who received all cycle 1 doses of ixazomib or experienced a DLT in cycle 1. […] Approximately 16 response-evaluable patients were planned to be evaluated in each MTD expansion cohort.

[2] = target: chymotrypsin-like activity of the β5 subunit of the 20S proteasome (Homo sapiens, UniProt P28074); test: Whole blood 20S proteasome activity, fluorogenic assay; assay type: in vivo
Description: Blood samples for determination of plasma ixazomib concentrations for pharmacokinetic analysis (3 mL) and for measurement of whole blood 20S proteasome activity (1 mL) were collected at the following timepoints for all patients in the dose-escalation cohort and for the first 12 patients completing cycle 1 while receiving protocol-specified treatment at the MTD: pre-dose (within 1 h) on days 1, 4, 8, and 11 of cycle 1, and on day 1 of cycle 2; and on days 1 and 11, cycle 1, at 5, 15 and 30 min, and 1, 2, 4, 9, 24, 48, 96 (day 11 only), 120 (day 11 only), and 168 (day 11 only) h post-dose. A limited sampling schedule was employed for the remaining patients in the MTD expansion cohorts.
Plasma concentrations of ixazomib were measured using a good laboratory practice-validated liquid chromatography/tandem mass spectrometry (LC/MS/MS) assay with a lower limit of quantification of 0.5 ng/mL. Whole blood 20S proteasome activity (expressed as percent proteasome inhibition relative to baseline) was measured using an established fluorogenic assay, which evaluates the chymotrypsin-like activity of the β5 subunit of the 20S proteasome, the primary target of ixazomib. […]
All efficacy and safety data were summarized using descriptive statistics. Pharmacokinetic and pharmacodynamic parameters were calculated using noncompartmental methods (WinNonlin software v5.3).

[3] = system: advanced non-hematologic malignancies; test: Disease response (RECIST 1.0 / modified PCWG2); assay type: in vivo, human
Source text: AEs were monitored throughout the study and were graded according to National Cancer Institute Common Terminology Criteria for Adverse Events (NCI-CTCAE) v3.0. Response assessments were undertaken by investigators using a consistent imaging modality in accordance with RECIST 1.0 [23] on days 18–21 of cycle 2 and subsequent cycles. For patients with prostate cancer, response and progressive disease were based on RECIST for measurable neoplastic disease or on measurement of serum PSA per modified PCWG2 criteria in the absence of measurable sites.
The safety population included all patients who received ≥1 dose of ixazomib, and the DLT-evaluable population, which was used for determination of the MTD, comprised patients who received all cycle 1 doses of ixazomib or experienced a DLT in cycle 1. […] The response-evaluable population included all patients who received ≥1 dose of ixazomib, had measurable disease at baseline, and had ≥1 post-baseline disease assessment. Approximately 16 response-evaluable patients were planned to be evaluated in each MTD expansion cohort.

## CC(C)C[C@H](NC(=O)CNC(=O)c1cc(Cl)ccc1Cl)B(O)O [ixazomib]
[1]; IV on days 1, 4, 8, and 11 of a 21-day cycle
  MTD (maximum tolerated dose): 1.76 mg/m^2
[1]; in vivo
  Patients who experienced DLTs: Five
[2]; day 1, 0.125 mg/m^2 IV, n = 1
  Time to Emax, whole blood 20S proteasome: 1.0 h
[2]; day 1, 0.125 mg/m^2 IV, n = 1, individual value
  Emax, whole blood 20S proteasome: 7.7 % inhibition
[2]; day 1, 0.25 mg/m^2 IV, n = 1
  Time to Emax, whole blood 20S proteasome: 0.10 h
[2]; day 1, 0.25 mg/m^2 IV, n = 1, individual value
  Emax, whole blood 20S proteasome: 17.9 % inhibition
[2]; day 1, 0.5 mg/m^2 IV, n = 1
  Time to Emax, whole blood 20S proteasome: 0.25 h
[2]; day 1, 0.5 mg/m^2 IV, n = 1, individual value
  Emax, whole blood 20S proteasome: 28.2 % inhibition
[2]; day 1, 1 mg/m^2 IV, n = 7, mean (± SD)
  Emax, whole blood 20S proteasome: 36.9 (±19.4) % inhibition
[2]; day 1, 1 mg/m^2 IV, n = 7, median (range)
  Time to Emax, whole blood 20S proteasome: 0.10 (0.08–0.10) h
[2]; day 1, 1.33 mg/m^2 IV, n = 4, mean (± SD)
  Emax, whole blood 20S proteasome: 46.7 (±9.4) % inhibition
[2]; day 1, 1.33 mg/m^2 IV, n = 4, median (range)
  Time to Emax, whole blood 20S proteasome: 0.25 (0.1–0.25) h
[2]; day 1, 1.76 mg/m^2 IV, n = 19, mean (± SD)
  Emax, whole blood 20S proteasome: 61.3 (±7.9) % inhibition
[2]; day 1, 1.76 mg/m^2 IV, n = 19, median (range)
  Time to Emax, whole blood 20S proteasome: 0.10 (0.067–0.267) h
[2]; day 1, 2.34 mg/m^2 IV, n = 3, mean (± SD)
  Emax, whole blood 20S proteasome: 64.4 (±3.4) % inhibition
[2]; day 11, 0.125 mg/m^2 IV, n = 1
  Time to Emax, whole blood 20S proteasome: 24.0 h
[2]; day 11, 0.125 mg/m^2 IV, n = 1, individual value
  Emax, whole blood 20S proteasome: 4.5 % inhibition
[2]; day 11, 0.25 mg/m^2 IV, n = 1
  Time to Emax, whole blood 20S proteasome: 0.083 h
[2]; day 11, 0.25 mg/m^2 IV, n = 1, individual value
  Emax, whole blood 20S proteasome: 10.0 % inhibition
[2]; day 11, 0.5 mg/m^2 IV, n = 1
  Time to Emax, whole blood 20S proteasome: 0.1 h
[2]; day 11, 0.5 mg/m^2 IV, n = 1, individual value
  Emax, whole blood 20S proteasome: 46.1 % inhibition
[2]; day 11, 1 mg/m^2 IV, n = 6, mean (± SD)
  Emax, whole blood 20S proteasome: 38.9 (±8.35) % inhibition
[2]; day 11, 1 mg/m^2 IV, n = 6, median (range)
  Time to Emax, whole blood 20S proteasome: 0.1 (0.0–0.117) h
[2]; day 11, 1.33 mg/m^2 IV, n = 3, mean (± SD)
  Emax, whole blood 20S proteasome: 54.3 (±4.1) % inhibition
[2]; day 11, 1.33 mg/m^2 IV, n = 3, median (range)
  Time to Emax, whole blood 20S proteasome: 0.083 (0.083–0.1) h
[2]; day 11, 1.76 mg/m^2 IV, n = 15, mean (± SD)
  Emax, whole blood 20S proteasome: 62.5 (±7.71) % inhibition
[2]; day 11, 1.76 mg/m^2 IV, n = 15, median (range)
  Time to Emax, whole blood 20S proteasome: 0.10 (0.083–0.283) h
[2]; day 11, 2.34 mg/m^2 IV, n = 3, mean (± SD)
  Emax, whole blood 20S proteasome: 72.5 (±4.71) % inhibition
[2]; day 11, 2.34 mg/m^2 IV, n = 3, median (range)
  Time to Emax, whole blood 20S proteasome: 0.10 (0.083-0.133) h
[2]; read-out: Average maximal inhibition of 20S proteasome activity in whole blood
  inhibition at 1.76 mg/m2: 60%
[2]; single-dose administration on day 1, except dose level greater than the MTD
  Recovery of 20S proteasome activity to predose levels: ≤ 24 h
[3]; 92 response-evaluable patients
  Patients with stable disease: 30 patients
  Patients with stable disease lasting for ≥4 cycles: eight
[3]; 92 response-evaluable patients, head and neck cancer, MTD 1.76 mg/m^2
  Patients with partial response: one
[3]; one patient with kidney malignancy, progressive disease at end of study
  Reduction in tumor diameter: 14%
[3]; other patient with kidney malignancy, discontinued due to grade 3 acute renal failure
  Reduction in tumor diameter: 22%
[3]; patient with head and neck cancer, achieved after 4 cycles, maintained for 8 cycles
  Total duration of partial response: 6.7 months

Reference: article PMC4435632, “Phase 1 study of ixazomib, an investigational proteasome inhibitor, in advanced non-hematologic malignancies” (Investigational New Drugs, 2015)
